Test systems include A549 NSCLC; HCT-15 colon; KM12 colon; MDA-MB-435; SF-268 CNS; SF-295 CNS; SF-539 CNS; SK-MEL-28 melanoma; SK-MEL-5 melanoma; TK-10 renal.
Holding throughout (experiment): NCI anticancer screen, dose series, 48 h

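Each compound was tested at five concentrations against cells in 96-well plates for 48 hours. The concentration for 50% growth inhibition is given as GI50. At the TGI there is no net growth.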

For `O=C(Nc1cccc(C(F)(F)F)c1)Oc1ccc(Cl)c2cccnc12`, the GI50 with A549 NSCLC is 2.43 µM; with HCT-15 colon, 0.584 µM; in the assay with KM12 colon it was 3.94 µM; in the assay on MDA-MB-435, 1.89 µM; in the assay on SF-268 CNS, 1.36 µM; in the assay with SF-295 CNS, 0.976 µM. Further, the GI50 in the assay on SF-539 CNS is 1.85 µM; with SK-MEL-28 melanoma it was 4.29 µM; in the assay with SK-MEL-5 melanoma it was 1.31 µM; in the assay on TK-10 renal, 4.1 µM. The TGI was 9.03 µM in the assay on A549 NSCLC; 9.19 µM with HCT-15 colon; 13.4 µM with KM12 colon; 9.5 µM in the assay on MDA-MB-435; 16.6 µM with SF-268 CNS; 6.93 µM with SF-295 CNS. The TGI in the assay on SF-539 CNS stood at 7.92 µM; with SK-MEL-28 melanoma, 17.8 µM; with SK-MEL-5 melanoma, 2.88 µM; in the assay on TK-10 renal it was 21.4 µM.

On to `COc1cc2nccc(Oc3ccc(NC(=O)c4cn(C(C)C)c(=O)n(-c5ccc(F)cc5)c4=O)cc3F)c2cc1OC`, for which the GI50 in the assay on A549 NSCLC is greater than 26 µM; in the assay with HCT-15 colon it was greater than 100 µM; with KM12 colon, 0.0453 µM; in the assay with MDA-MB-435 it was greater than 100 µM; in the assay with SF-268 CNS it was 4.51 µM; in the assay with SF-295 CNS, 0.435 µM. The GI50 with SF-539 CNS is 1.6 µM; in the assay on SK-MEL-28 melanoma, 3.19 µM; in the assay on SK-MEL-5 melanoma it was greater than 100 µM; in the assay with TK-10 renal, greater than 70.7 µM. Moreover, the TGI in the assay on A549 NSCLC was greater than 100 µM; in the assay with HCT-15 colon, greater than 100 µM; in the assay with KM12 colon, greater than 100 µM; in the assay on MDA-MB-435 it was greater than 100 µM; in the assay on SF-268 CNS, greater than 51.6 µM; with SF-295 CNS, greater than 100 µM. In addition, the TGI in the assay on SF-539 CNS was 3.38 µM; with SK-MEL-28 melanoma it was 18.1 µM; in the assay on SK-MEL-5 melanoma it was greater than 100 µM; with TK-10 renal, greater than 100 µM.

`N#Cc1cccc(C2C3=C(COC3=O)N(CCO)c3cc4c(cc32)OCO4)c1` (centres undefined): the GI50 was 6.17 µM with A549 NSCLC; 0.971 µM with HCT-15 colon; 1.74 µM in the assay with KM12 colon; 0.154 µM in the assay with MDA-MB-435; 3.99 µM in the assay with SF-268 CNS; 1.17 µM with SF-295 CNS. Besides, the GI50 with SF-539 CNS is 1.53 µM; in the assay with SK-MEL-28 melanoma it was 25.5 µM; in the assay with SK-MEL-5 melanoma, 1.07 µM; in the assay with TK-10 renal, 15.4 µM. Also, the TGI in the assay on A549 NSCLC was greater than 50 µM; in the assay on HCT-15 colon, greater than 50 µM; in the assay with KM12 colon it was greater than 50 µM; with MDA-MB-435, 1.03 µM; in the assay on SF-268 CNS it was greater than 50 µM; in the assay with SF-295 CNS, greater than 50 µM. The TGI was 8.52 µM with SF-539 CNS, greater than 50 µM with SK-MEL-28 melanoma, greater than 50 µM in the assay on SK-MEL-5 melanoma and greater than 50 µM with TK-10 renal.

On to `CC/C(=C/c1ccc(OC)cc1OC)[N+](=O)[O-]`, for which the GI50 in the assay with A549 NSCLC is 8.37 µM; in the assay with HCT-15 colon, 1.87 µM; in the assay on KM12 colon, 2.41 µM; in the assay on MDA-MB-435, 1.97 µM; with SF-268 CNS, 3.28 µM; in the assay on SF-295 CNS it was 9.88 µM. The GI50 in the assay on SF-539 CNS was 2.27 µM; with SK-MEL-28 melanoma, 2.51 µM; with SK-MEL-5 melanoma, 4.12 µM; with TK-10 renal it was 2.62 µM. In addition, the TGI in the assay on A549 NSCLC was 23.4 µM; with HCT-15 colon it was 4.54 µM; with KM12 colon, 6.75 µM; in the assay with MDA-MB-435 it was 5.7 µM; in the assay on SF-268 CNS it was 12.7 µM; in the assay with SF-295 CNS, 21.7 µM. In addition, the TGI with SF-539 CNS worked out at 4.73 µM; with SK-MEL-28 melanoma, 6.51 µM; with SK-MEL-5 melanoma, 14 µM; with TK-10 renal it was 6.5 µM.

On to `COc1cc2c3c(n(CCCNCCCN)c(=O)c2cc1OC)-c1cc2c(cc1C3=O)OCO2`, for which the GI50 in the assay on A549 NSCLC was 6.11 µM; in the assay on HCT-15 colon, 25 µM; with KM12 colon, 3.51 µM; in the assay on MDA-MB-435 it was 2.53 µM; with SF-268 CNS it was 1.98 µM; in the assay with SF-295 CNS, 3.69 µM. For the same molecule, the GI50 with SF-539 CNS is 1.17 µM; with SK-MEL-28 melanoma, 4.37 µM; in the assay with SK-MEL-5 melanoma it was 5.35 µM; in the assay on TK-10 renal it was 9.74 µM. Further, the TGI in the assay with A549 NSCLC was 29.6 µM; in the assay on HCT-15 colon, greater than 100 µM; in the assay on KM12 colon it was 16.9 µM; in the assay with MDA-MB-435, 13.5 µM; in the assay with SF-268 CNS, 10.5 µM; in the assay with SF-295 CNS it was 16.7 µM. For the same molecule, the TGI came out at 10.6 µM with SF-539 CNS, 17.8 µM in the assay on SK-MEL-28 melanoma, 19 µM in the assay on SK-MEL-5 melanoma and 27.9 µM in the assay on TK-10 renal.

`CC(C)(C)OC(=O)Nc1ccc2c(c1)C(NC(=O)Nc1cccc(C#N)c1)CC(C)(C)O2` (centres undefined): the GI50 was 2.9 µM with A549 NSCLC; 1.89 µM in the assay with HCT-15 colon; 3.39 µM in the assay on KM12 colon; 1.44 µM in the assay with MDA-MB-435; 5.1 µM in the assay on SF-268 CNS; 1.94 µM with SF-295 CNS. The GI50 with SF-539 CNS was 5.19 µM; with SK-MEL-28 melanoma, 5.34 µM; in the assay on SK-MEL-5 melanoma, 0.463 µM; in the assay with TK-10 renal, 6.14 µM. For the same molecule, the TGI in the assay with A549 NSCLC was greater than 100 µM; with HCT-15 colon, greater than 51.3 µM; in the assay with KM12 colon, greater than 100 µM; in the assay on MDA-MB-435, 15.2 µM; in the assay with SF-268 CNS it was greater than 100 µM; with SF-295 CNS, greater than 37.1 µM. Further, the TGI in the assay with SF-539 CNS is 44.1 µM; with SK-MEL-28 melanoma, 71.4 µM; in the assay on SK-MEL-5 melanoma, 3.15 µM; with TK-10 renal, greater than 100 µM.

For the molecule `CC[C@H](C)[C@H](NC(=O)c1cccn1C)C(=O)N(C)[C@H](C[C@@H](OC(C)=O)c1nc(C(=O)N[C@@H](Cc2ccccc2)C[C@H](C)C(=O)OC)cs1)C(C)C`, the GI50 in the assay with A549 NSCLC was 0.661 µM; in the assay on HCT-15 colon, 0.337 µM; with KM12 colon, 0.106 µM; in the assay on MDA-MB-435, 0.0348 µM; in the assay on SF-268 CNS, 0.351 µM; in the assay with SF-295 CNS, 0.0744 µM. The GI50 is 0.203 µM with SF-539 CNS, 1.5 µM in the assay on SK-MEL-28 melanoma, 0.103 µM with SK-MEL-5 melanoma and 2.61 µM with TK-10 renal. The TGI was greater than 33.3 µM in the assay on A549 NSCLC; greater than 33.3 µM in the assay with HCT-15 colon; greater than 33.3 µM with KM12 colon; 0.168 µM in the assay on MDA-MB-435; greater than 33.3 µM with SF-268 CNS; 1.22 µM in the assay with SF-539 CNS. For the same molecule, the TGI in the assay with SK-MEL-28 melanoma is greater than 33.3 µM; with SK-MEL-5 melanoma, 0.736 µM; in the assay with TK-10 renal, greater than 33.3 µM.
